Results published in patent publication US20110034397A1, “INTESTINAL IMMUNE SYSTEM STIMULATOR” (priority 2008, published 2011).

Experiments:
mouse spleen cells [1] = experiment: Antibody production by mouse spleen cells stimulated with LPS (ELISA of culture supernatant); assay type: cell-based; conditions: 5 μg LPS, cultured 5 days, versus phosphate buffer control, FIG. 1
Experimental: Six- to eight-week-old BALB mice (female) were fed for 1 week a commercially-available solid feed and provided with tap water. To evaluate the influence of γ-glutamylcysteine on antibody production, a culture system using mouse spleen cells was employed. The spleen cells were collected from the BALB-c mice (n=3), then washed and suspended in RPMI 1640 medium (10% FCS, 50 U/ml penicillin, 50 μg/ml streptomycin). The cells were adjusted so that there were 1×10^6 cells per 48-well culture plate, and then either γ-glutamylcysteine or glutathione (purchased from Sigma) each dissolved in a phosphate buffer, was added to the plates. A phosphate buffer was added to plates as a control. Then, the cells were stimulated with 5 μg of LPS (lipopolysaccharide, obtained from Sigma). […] The cells were then cultured in a CO2 incubator at 37° C. for 5 days, and the amounts of the antibodies in the supernatant were analyzed. The amounts of IgA and IgG were measured by the ELISA method. […] The reaction was stopped with 100 μl of 3 M NaOH/well, and the absorbance was measured at 405 nm. IgA was measured in accordance with the same method as for IgG except that a rat anti-mouse IgA antibody (BD Biosciences) was used as the immobilized antibody. […]

mouse spleen cells [2] = experiment: Antibody production by mouse spleen cells stimulated with ConA (ELISA of culture supernatant); assay type: cell-based; conditions: 0.5 μg ConA, cultured 5 days, versus control, FIG. 3
Experimental: Six- to eight-week-old BALB mice (female) were fed for 1 week a commercially-available solid feed and provided with tap water. To evaluate the influence of γ-glutamylcysteine on antibody production, a culture system using mouse spleen cells was employed. The spleen cells were collected from the BALB-c mice (n=3), then washed and suspended in RPMI 1640 medium (10% FCS, 50 U/ml penicillin, 50 μg/ml streptomycin). The cells were adjusted so that there were 1×10^6 cells per 48-well culture plate, and then either γ-glutamylcysteine or glutathione (purchased from Sigma) each dissolved in a phosphate buffer, was added to the plates. A phosphate buffer was added to plates as a control. […] The cells were again adjusted so that there were 1×10^6 cells per 48-well culture plate, and then stimulated with 0.5 μg of ConA (concanavalin A) in the presence or absence of γ-glutamylcysteine or glutathione. The cells were then cultured in a CO2 incubator at 37° C. for 5 days, and the amounts of the antibodies in the supernatant were analyzed. The amounts of IgA and IgG were measured by the ELISA method. The method for measuring IgG is described below. […] The reaction was stopped with 100 μl of 3 M NaOH/well, and the absorbance was measured at 405 nm. IgA was measured in accordance with the same method as for IgG except that a rat anti-mouse IgA antibody (BD Biosciences) was used as the immobilized antibody. […]

BALB/c male mice = assay type: in vivo, mouse; conditions: relative index, non-administered control group = 1, 10 mg/kg B.W./day by gavage, 7 days
Experimental: Five-week-old BALB/c male mice (n=6) were fed for 1 week and then used in this experiment. A commercially-available feed was used, and the mice' access to the feed was unrestricted, and tap water was provided. γ-Glutamylcysteine was dissolved in sterilized physiological saline, and gavage administration was performed at 10 mg/kg B.W./day. The administration period was 7 days. During the administration period, the body weights were measured every day immediately before the administration to determine the dosage. There was no difference between the body weights of the different groups. On day 7 after the start of the test, a necropsy examination was performed. Anesthesia was performed by interperitoneal administration with a pentobarbital formulation. At laparotomy, blood was collected from the abdominal aorta. The small intestinal contents were also collected. Serum was collected from the blood, and the total IgA and total IgG concentrations were measured using an ELISA kit. The intestinal contents were diluted 10-fold with PBS and suspended sufficiently, and centrifugation was then performed to separate the […]. The total IgA concentration was measured by ELISA in the same way as in Example 1. In the table, γ-EC represents γ-glutamylcysteine. […] However, the amounts of serum IgA and serum IgG were found not to increase, and it was confirmed that the peptide was able to stimulate the immunoactivity in the intestinal mucosa.

N[C@@H](CCC(=O)N[C@@H](CS)C(=O)O)C(=O)O [γ-glutamylcysteine, γ-Glutamylcysteine]
amounts of IgA produced (mouse spleen cells [1]): increase production of IgA as compared with glutathione | amounts of IgA produced (mouse spleen cells [2]): increase production of IgA as compared with glutathione | Serum IgA (BALB/c male mice): 0.3 | Serum IgG (BALB/c male mice): 0.6 | Small intestine IgA (BALB/c male mice; total IgA in small intestinal contents): 3.0
